Data reported in patent EP0171977A1, “Phthalimide derivatives, compositions containing them and a process for preparing them” (SANKYO COMPANY LIMITED, priority 1984, dated 1986).
Where two headings read alike, the source gives them in different places.

Legend:
[1] = tested on: right atrium of a guinea pig heart; test: Effect on heart beat: spontaneous contraction of excised right atrium; conditions: for inhibition at 100 µg/mL: Concentration 1x10^-4 g/ml; for inhibition at 30 µg/mL: Concentration 3x10^-5 g/ml
Protocol: The right atrium of a guinea pig heart was excised and placed in a bath containing Krebs - Henseleit solution maintained at 37°C, through which was bubbled a gas containing 95% oxygen and 5% carbon dioxide. […] The results, in terms of the percentage decrease (-) or increase (+) in the rate of heart beat, for the compounds of the invention and for glyceryl trinitrate are shown in Table 2.

collateral blood vessels = test: Selective vasodilative effect on collateral blood vessels (coronary vascular resistance, method of Winburg et al.); assay type: in vivo; conditions: anaesthetized dogs, test compound 30 ug/kg intravenously vs glyceryl trinitrate 3 µg/kg; for Glyceryl trinitrate ratio RL/RT: ratio of selectivity (RL/RT) of test compound to that of glyceryl trinitrate; for Glyceryl trinitrate ratio RL: ratio of vascular resistance (RL) of test compound to that of glyceryl trinitrate
Protocol: The test animals employed in this experiment were dogs. Each animal was anaesthetized with pentobarbital and the chest was opened to expose the heart, whilst respiration was maintained artificially.
Following the method of Winburg et al. [J. Pharmacol. Exp. Ther., 168, 70-95 (1969)], the vascular resistance (RL) between two points, one at a large coronary artery on the cardiac surface and the other at a small coronary artery, was calculated by dividing the blood pressure difference between these two points by the blood flow. The peripheral resistance of the coronary artery (RT) was determined and the value RL was divided by the value RT, to give the selectivity (RL/RT).
Each compound of the invention tested was administered intravenously at a dose of 30 ug/kg body weight immediately prior to the measurement of vascular resistance. The same experiment was carried out employing glyceryl trinitrate at a dose of 3 µg/kg body weight and the results are reported in the following Table 1 as the glyceryl trinitrate ratios, i.e. the ratio between the vascular resistance of the test compound and that of glyceryl trinitrate or the selectivity of the test compound and that of glyceryl trinitrate.

[2] = Cavia porcellus, read-out: percentage decrease (-) or increase (+) in the rate of heart beat
[3] = Cavia porcellus, Krebs - Henseleit solution, 37°C, read-out: percentage decrease (-) or increase (+) in the rate of heart beat
[4] = Cavia porcellus, Concentration 1x10^-5 g/ml, Krebs - Henseleit solution, 37°C, read-out: percentage decrease (-) or increase (+) in the rate of heart beat

SMILES | inhibition at 1 µg/mL [1, 2] [%] | inhibition at 3 µg/mL [1, 2] [%] | inhibition at 10 µg/mL [1, 2] [%] | change in the heart beat ([1]; added at doses between 10^-6 and 10 ^5 g/ml) | inhibition at 100 µg/mL [1, 3] [%] | inhibition at 10 µg/mL [1, 4] [%] | inhibition at 30 µg/mL [1, 3] [%] | Glyceryl trinitrate ratio RL/RT (collateral blood vessels) | Glyceryl trinitrate ratio RL (collateral blood vessels)
O=[N+]([O-])OCC(CO[N+](=O)[O-])O[N+](=O)[O-] [Glyceryl trinitrate, reference compound] | 0 | -1 | 0 | very little or no change |  |  |  |  | 
O=C1c2ccc(OCCN3CCCCC3)cc2C(=O)N1CCO[N+](=O)[O-] [Compound No. 59, N-(2-nitrooxyethyl)-4-(2-piperidinoethoxy)-phthalimide] |  |  |  |  | 74 | 32 | 61 | 1.6 | 1.2
CN(C)CCCOc1ccc2c(c1)C(=O)N(CCO[N+](=O)[O-])C2=O [Compound No. 51, N-(2-nitrooxyethyl)-4-(3-N,N-dimethylamino-propoxy)phthalimide] |  |  |  |  | 64 | 31 | 58 | 1.4 | 1.6
CCN(CC)CCOc1ccc2c(c1)C(=O)N(CCO[N+](=O)[O-])C2=O [Compound No. 25, N-(2-nitrooxyethyl)-4-(2-N,N-diethylaminoethoxy)-phthalimide] |  |  |  |  | 73 | 53 | 67 | 1.6 | 1.6
CC(C)N(CCOc1ccc2c(c1)C(=O)N(CCO[N+](=O)[O-])C2=O)C(C)C [Compound No. 27, N-(2-nitrooxyethyl)-4-(2-N,N-diisopropylamino-ethoxy)phthalimide] |  |  |  |  | 71 | 59 | 64 | 1.4 | 1.8
CC(COc1ccc2c(c1)C(=O)N(CCO[N+](=O)[O-])C2=O)CN(C)C (centres unmarked) [Compound No. 54, N-(2-nitrooxyethyl)-4-(3-N,N-dimethylamino-2-methylpropoxy)phthalimide] |  |  |  |  | 62 | 37 | 56 | 2.1 | 1.7
